What all share (type): physicochemical
A short description of data set [1]: Form E generation attempts via desolvation or heating. The text has this: These attempts were not successful in providing Form E as a pure crystalline phase. Mixtures primarily composed of Form E and other unidentified crystalline phase(s) were obtained (FIG. 42).
Heat induced crystallization of amorphous GC4711 is described in Table 50.

Data set [2] is described as follows: X-ray powder diffraction (XRPD). As to the method: XRPD patterns were collected with a PANalytical X'Pert PRO MPD or a PANalytical Empyrean diffractometer using an incident beam of Cu radiation produced using an Optix long, fine-focus source. An elliptically graded multilayer mirror was used to focus Cu Kα X-rays through the specimen and onto the detector. Prior to the analysis, a silicon specimen (NIST SRM 640e or 640f) was analyzed to verify the observed position of the Si 111 peak is consistent with the NIST-certified position. A specimen of the sample was sandwiched between 3-μm-thick films and analyzed in transmission geometry. […]
XRPD patterns were collected with a PANalytical X'Pert PRO MPD diffractometer using an incident beam of Cu Kα radiation produced using a long, fine-focus source and a nickel filter. […] Prior to the analysis, a silicon specimen (NIST SRM 640e or 640f) was analyzed to verify the observed position of the Si 111 peak is consistent with the NIST-certified position. […]
XRPD patterns were collected with a PANalytical X'Pert PRO MPD or a PANalytical Empyrean diffractometer using an incident beam of Cu radiation produced using an Optix long, fine-focus source. […] Prior to the analysis, a silicon specimen (NIST SRM 640e or 640f) was analyzed to verify the observed position of the Si 111 peak is consistent with the NIST-certified position. […]

Data set [3] can be described thus: Differential scanning calorimetry (DSC). The conditions noted are these: −30 to 250° C. As for the experimental part:
DSC was performed using a Mettler-Toledo DSC3+ differential scanning calorimeter. A tau lag adjustment is performed with indium, tin, and zinc. The temperature and enthalpy are adjusted with octane, phenyl salicylate, indium, tin and zinc. The adjustment is then verified with octane, phenyl salicylate, indium, tin, and zinc. The sample was placed into a hermetically sealed aluminum DSC pan, the weight was accurately recorded, and the sample was inserted into the DSC cell. A weighed aluminum pan configured as the sample pan was placed on the reference side of the cell. The pan lid was pierced prior to sample analysis. […]
A cycling DSC experiment was conducted for as-received amorphous, in which the sample was analyzed from −25° C. to 200° C., then cooled to −25° C. and reheated to 250° C. at 10° C./min.

Data set [4] can be described thus: Approximate solubility of the starting material at 25° C. and 50° C.
Test in data set [5]: as above
As to the method:
About 10 mg of drug substance was weighed to a 2 mL glass vial and aliquot of 20 μL of each solvent will be added to determine solubility at 50° C. Approximate solubility was determined by visual observation.
This is another data set of the same source.

From patent publication US20250073244A1, “CRYSTALLINE FORMS OF PENTAAZA MACROCYCLIC RING COMPLEX” (Galera Labs, LLC, priority 2023, published 2025) come the findings set out here.

With `CCC(=O)[O][Mn][O]C(=O)CC.c1cc2nc(c1)CN[C@H]1CCCC[C@@H]1NCCN[C@H]1CCCC[C@@H]1NC2` [Sample 8516-07-01], in data set [1] (8429-97-01 Forn E + Form A, vacuum dried, ambient, 2 days), the “Result (form)” value is reported as “peaks”.

Turning to `CCC(=O)[O][Mn][O]C(=O)CC.c1cc2nc(c1)CN[C@H]1CCCC[C@@H]1NCCN[C@H]1CCCC[C@@H]1NC2` [Sample 8429-73-01], in data set [2], the “XRPD Result” value is recorded as “Form E + peaks”. For the same molecule, the DSC minor endotherm entry in data set [3] was “minor endotherm near 197 °C”.

As for `CCC(=O)[O][Mn][O]C(=O)CC.c1cc2nc(c1)CN[C@H]1CCCC[C@@H]1NCCN[C@H]1CCCC[C@@H]1NC2` [Sample 8429-84-01], in data set [1] (8429-79-01 and 8429-79-02, Form A + E combined and stored over P2O5, 5 days), the “Result (form)” value was “E + A”.

Consider `CCC(=O)[O][Mn][O]C(=O)CC.c1cc2nc(c1)CN[C@H]1CCCC[C@@H]1NCCN[C@H]1CCCC[C@@H]1NC2` [Form 8429-39-01], for which, in data set [1] (amorphous material (pale light yellow) after held @ 100° C., 5 min.), the Observation is given as 3. peach in color.

As for `CCC(=O)[O][Mn][O]C(=O)CC.c1cc2nc(c1)CN[C@H]1CCCC[C@@H]1NCCN[C@H]1CCCC[C@@H]1NC2` [Form 8429-73-01], in data set [3], the DSC endotherm onset entry was “endotherm onset of 232 °C”.

Consider `CCC(=O)[O][Mn][O]C(=O)CC.c1cc2nc(c1)CN[C@H]1CCCC[C@@H]1NCCN[C@H]1CCCC[C@@H]1NC2` [Sample 8429-97-03], for which the “Result (form)” value in data set [1] (P2O5, 4 days) is “E + A”.

Regarding `CCC(=O)[O][Mn][O]C(=O)CC.c1cc2nc(c1)CN[C@H]1CCCC[C@@H]1NCCN[C@H]1CCCC[C@@H]1NC2` [drug substance], the Solubility result in data set [4] (2-Propanol, 25° C.) is on record as “S > 285.5 mg/mL”; in data set [4] (Dichloromethane, 25° C.), “S > 297.5 mg/mL”; in data set [4] (Ethanol, 25° C.) it was “S > 322.5 mg/mL”; in data set [4] (Heptane, 25° C.), “S < 3.7 mg/mL”; in data set [4] (Heptane, 50° C.) it was “S < 3.7 mg/mL”; in data set [4] (Methanol, 25° C.) it was “S > 306.0 mg/mL”. Besides, the Solubility entry was “S > 319.0 mg/mL” in data set [4] (Tetrahydrofuran, 25° C.); “S > 314.5 mg/mL” in data set [4] (Water, 25° C.); “S > 259.5 mg/mL” in data set [5] (1,4-Dioxane); “S > 292.5 mg/mL” in data set [5] (2-Propanol); “S > 315.5 mg/mL” in data set [5] (Acetonitrile); “S > 278.5 mg/mL” in data set [5] (Dichloromethane). Besides, the Solubility result is “S > 281.5 mg/mL” in data set [5] (Ethanol), “S > 332.0 mg/mL” in data set [5] (Methanol), “S > 319.0 mg/mL” in data set [5] (Tetrahydrofuran) and “S > 337.5 mg/mL” in data set [5] (Water).
